Reference: patent US11459339B2, “Biaryl derivative, preparation method thereof and pharmaceutical application thereof” (Abbisko Therapeutics Co., Ltd., priority 2018, dated 2022)

How the values were obtained:
[1] = biological target: interaction between PD-1 and PD-L1 (Homo sapiens (Human), UniProt Q9NZQ7); test: PD1-PDL1 HTRF binding activity test (Cisbio PD-1/PD-L1 binding assay kit); conditions: read-out: PD1-PDL1 HTRF Binding Activity IC50
[2] = biological target: interaction between PD-1 and PD-L1 expressed on cell surfaces (Homo sapiens (Human), UniProt Q9NZQ7); test: Jurkat reporter gene cellular assay (Jurkat/NF-κB-luc/PD1 cells cocultured with Raji-PD-L1 cells, OKT-3 stimulation); assay type: cell-based; conditions: NF-κB-luc reporter activation fold, 6 hrs; read-out: Cell Activity EC50
interaction between PD-1 and PD-L1 expressed on cell surfaces, sequence (Q9NZQ7 19-290): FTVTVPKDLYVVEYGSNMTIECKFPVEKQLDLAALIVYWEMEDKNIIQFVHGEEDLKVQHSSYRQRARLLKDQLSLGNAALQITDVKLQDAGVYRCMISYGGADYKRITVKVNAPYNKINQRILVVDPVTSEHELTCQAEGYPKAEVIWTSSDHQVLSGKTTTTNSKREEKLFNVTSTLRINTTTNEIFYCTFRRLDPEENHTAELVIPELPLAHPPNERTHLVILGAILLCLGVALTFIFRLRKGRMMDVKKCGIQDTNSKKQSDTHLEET
Summary of the method: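 Jurkat cells stably expressing human PD-1 and NF-κB-luciferase were cocultured with Raji cells stably expressing human PD-L1 under OKT-3 stimulation, with compound present. Luminescence was read after 6 h.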

interaction between PD-1 and PD-L1, sequence (Q9NZQ7 19-238): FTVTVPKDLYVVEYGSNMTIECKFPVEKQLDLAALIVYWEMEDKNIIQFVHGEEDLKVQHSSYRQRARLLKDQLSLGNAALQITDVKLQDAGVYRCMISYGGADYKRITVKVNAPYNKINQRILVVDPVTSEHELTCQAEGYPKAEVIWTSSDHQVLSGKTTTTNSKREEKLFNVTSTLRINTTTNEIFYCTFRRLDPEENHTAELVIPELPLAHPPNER

Cc1c(NC(=O)c2cc(C3CC3)c(CN[C@@H](C)CO)cn2)cccc1-c1cccc(NC(=O)c2cc(C3CC3)c(CN[C@@H](C)CO)cn2)c1C [Example 96, N,N'-(2,2′-dimethyl-[1,1′-biphenyl]-3,3′-diyl)bis(4-cyclopropyl-5-((((S)-1-hydroxypropan-2-yl)amino)methyl)picolinamide)] was tested, and the IC50 [1] was 1.44 nM and the EC50 [2] was 87 nM.
Cc1c(NC(=O)c2cc(C3CC3)c(CNC3CCC[C@@H]3O)cn2)cccc1-c1cccc(NC(=O)c2cc(C3CC3)c(CN[C@H]3CCC[C@@H]3O)cn2)c1C (stereo partly shown) [Example 97] was tested, and the IC50 [1] was 3.38 nM and the EC50 [2] was 221 nM.
In the case of Cc1c(NC(=O)c2cc(C3CC3)c(CN3CC(O)C3)cn2)cccc1-c1cccc(NC(=O)c2cc(C3CC3)c(CN3CC(O)C3)cn2)c1C [Example 98, N,N′-(2,2′-dimethyl-[1,1′-biphenyl]-3,3′-diyl)bis(4-cyclopropyl-5-((3-hydroxyazetidin-1-yl)methyl)picolinamide)], the IC50 [1] is reported as 3.78 nM and the EC50 [2] is reported as 241 nM.
With Cc1c(NC(=O)c2cc(C3CC3)c(CN3CC(C)(O)C3)cn2)cccc1-c1cccc(NC(=O)c2cc(C3CC3)c(CN3CC(C)(O)C3)cn2)c1C [Example 99, N,N′-(2,2′-dimethyl-[1,1′-biphenyl]-3,3′-diyl)bis(4-cyclopropyl-5-((3-hydroxy-3-methylazetidin-1-yl)methyl)picolinamide)] the IC50 [1] was 1.43 nM and the EC50 [2] was 260 nM.
Work on Cc1c(NC(=O)c2cc(C3CC3)c(CN3CC[C@@H](O)C3)cn2)cccc1-c1cccc(NC(=O)c2cc(C3CC3)c(CN3CC[C@@H](O)C3)cn2)c1C [Example 100] yielded an IC50 [1] of 1.51 nM and an EC50 [2] of 122 nM.
In the case of Cc1c(NC(=O)c2cc(C3CC3)c(CN3CC[C@H](O)C3)cn2)cccc1-c1cccc(NC(=O)c2cc(C3CC3)c(CN3CC[C@H](O)C3)cn2)c1C [Example 101, N,N′-(2,2′-dimethyl-[1,1′-biphenyl]-3,3′-diyl)bis(4-cyclopropyl-5-(((S)-3-hydroxypyrrolidin-1-yl)methyl)picolinamide)], the IC50 [1] is reported as 1.09 nM and the EC50 [2] is reported as 267 nM.
Work on Cc1c(NC(=O)c2cc(C3CC3)c(CN3CCC(O)CC3)cn2)cccc1-c1cccc(NC(=O)c2cc(C3CC3)c(CN3CCC(O)CC3)cn2)c1C [Example 102, N,N′-(2,2′-dimethyl-[1,1′-biphenyl]-3,3′-diyl)bis(4-cyclopropyl-5-((4-hydroxypiperidin-1-yl)methyl)picolinamide)] yielded an IC50 [1] of 3.61 nM and an EC50 [2] of 194 nM.
Cc1c(NC(=O)c2cc(C3CC3)c(CNC3CC(O)C3)cn2)cccc1-c1cccc(NC(=O)c2cc(C3CC3)c(CN[C@H]3C[C@@H](O)C3)cn2)c1C (stereo partly shown) [Example 103, N,N′-(2,2′-dimethyl-[1,1′-biphenyl]-3,3′-diyl)bis(4-cyclopropyl-5-((((1s,3s)-3-hydroxycyclobutyl)amino)methyl)picolinamide)] showed an IC50 [1] of 4.11 nM and an EC50 [2] of 206 nM.
Cc1c(NC(=O)c2cc(C3CC3)c(CN[C@H](CO)C(=O)O)cn2)cccc1-c1cccc(NC(=O)c2cc(C3CC3)c(CN[C@H](CO)C(=O)O)cn2)c1C [Example 105] was tested, and the IC50 [1] was 0.27 nM and the EC50 [2] was 14.1 nM.
CCOC(=O)[C@@H](CO)NCc1cnc(C(=O)Nc2cccc(-c3cccc(NC(=O)c4cc(C5CC5)c(CN[C@H](CO)C(=O)OCC)cn4)c3C)c2C)cc1C1CC1 [Example 106, diethyl 2,2′-((((((2,2′-dimethyl-[1,1′-biphenyl]-3,3′-diyl)bis(azanediyl))bis (carbonyl))bis(4-cyclopropylpyridine-6,3-diyl))bis(methylene))bis(azanediyl)) (2R,2′R)-bis(3-hydroxypropanoate)] gave an IC50 [1] of 22.5 nM and an EC50 [2] of 1260 nM.
CCOC(=O)[C@H](CO)NCc1cnc(C(=O)Nc2cccc(-c3cccc(NC(=O)c4cc(C5CC5)c(CN[C@@H](CO)C(=O)OCC)cn4)c3C)c2C)cc1C1CC1 [Example 107, diethyl 2,2′-((((((2,2′-dimethyl-[1,1′-biphenyl]-3,3′-diyl)bis(azanediyl))bis(carbonyl))bis(4-cyclopropylpyridine-6,3-diyl))bis (methylene))bis(azanediyl))(2S,2′S)-bis (3-hydroxypropanoate)] gave an IC50 [1] of 15.2 nM and an EC50 [2] of 753 nM.
Cc1c(NC(=O)c2cc(C3CC3)c(CN[C@@H](CO)C(=O)O)cn2)cccc1-c1cccc(NC(=O)c2cc(C3CC3)c(CN[C@@H](CO)C(=O)O)cn2)c1C [Example 108, (2S,2′S)-2,2′-((((((2,2′-dimethyl-[1,1′-biphenyl]-3,3′-diyl)bis(azanediyl))bis(carbonyl))bis(4-cyclopropylpyridine-6,3-diyl))bis(methylene))bis(azanediyl)) bis(3-hydroxypropanoic acid)] showed an IC50 [1] of 0.84 nM and an EC50 [2] of 42.3 nM.
COC(=O)[C@@H]1CCCCN1Cc1cnc(C(=O)Nc2cccc(-c3cccc(NC(=O)c4cc(C5CC5)c(CN5CCCC[C@H]5C(=O)OC)cn4)c3C)c2C)cc1C1CC1 [Example 109, dimethyl 1,1′-(((((2,2′-dimethyl-[1,1′-biphenyl]-3,3′-diyl)bis(azanediyl))bis(carbonyl))bis(4-cyclopropylpyridine-6,3-diyl))bis(methylene))(2S,2′S)-bis (piperidine-2-carboxylate)] gave an IC50 [1] of 375 nM and an EC50 [2] greater than 10000 nM.
Compound Cc1c(NC(=O)c2cc(C3CC3)c(CN3CCCC[C@H]3C(=O)O)cn2)cccc1-c1cccc(NC(=O)c2cc(C3CC3)c(CN3CCCC[C@H]3C(=O)O)cn2)c1C [Example 110, (2S,2′S)-1,1′-(((((2,2′-dimethyl-[1,1′-biphenyl]-3,3′-diyl)bis(azanediyl))bis (carbonyl))bis(4-cyclopropylpyridine-6,3-diyl))bis(methylene))bis(piperidine-2-carboxylic acid)] has an IC50 [1] of 0.67 nM and an EC50 [2] of 51 nM.
CCOC(=O)[C@@H](NCc1cnc(C(=O)Nc2cccc(-c3cccc(NC(=O)c4cc(C5CC5)c(CN[C@H](C(=O)OCC)[C@@H](C)O)cn4)c3C)c2C)cc1C1CC1)[C@@H](C)O [Example 111, diethyl 2,2′-((((((2,2′-dimethyl-[1,1′-biphenyl]-3,3′-diyl)bis (azanediyl))bis(carbonyl))bis (4-cyclopropylpyridine-6,3-diyl))bis(methylene))bis(azanediyl)) (2S,2′S,3R,3′R)-bis(3-hydroxybutanoate)] was tested, and the IC50 [1] was 79.4 nM and the EC50 [2] was 5950 nM.
Cc1c(NC(=O)c2cc(C3CC3)c(CN[C@H](C(=O)O)[C@@H](C)O)cn2)cccc1-c1cccc(NC(=O)c2cc(C3CC3)c(CN[C@H](C(=O)O)[C@@H](C)O)cn2)c1C [Example 112, (2S,2′S,3R,3′R)-2,2′-((((((2,2′-dimethyl-[1,1′-biphenyl1]-3,3′-diyl)bis(azanediyl))bis(carbonyl))bis(4-cyclopropylpyridine-6,3-diyl))bis(methylene))bis(azanediyl))bis(3-hydroxybutanoic acid)] was tested, and the IC50 [1] was 1.02 nM and the EC50 [2] was 34.6 nM.
Compound Cc1c(NC(=O)c2cc(C3CC3)c(CN[C@H]3CCOC3=O)cn2)cccc1-c1cccc(NC(=O)c2cc(C3CC3)c(CN[C@H]3CCOC3=O)cn2)c1C [Example 113] has an IC50 [1] of 6.77 nM and an EC50 [2] of 979 nM.
Cc1c(NC(=O)c2cc(C3CC3)c(CN[C@@H](CCO)C(=O)O)cn2)cccc1-c1cccc(NC(=O)c2cc(C3CC3)c(CN[C@@H](CCO)C(=O)O)cn2)c1C [Example 114, (2S,2′S)-2,2′-((((((2,2′-dimethyl-[1,1′-biphenyl]-3,3′-diyl)bis(azanediyl))bis(carbonyl))bis (4-cyclopropylpyridine-6,3-diyl))bis (methylene))bis(azanediyl))bis(4-hydroxybutanoic acid)] was tested, and the IC50 [1] was 5.2 nM and the EC50 [2] was 89 nM.
Work on CCOC(=O)C[C@H](NCc1cnc(C(=O)Nc2cccc(-c3cccc(NC(=O)c4cc(C5CC5)c(CN[C@@H](CC(=O)OCC)C(=O)OCC)cn4)c3C)c2C)cc1C1CC1)C(=O)OCC [Example 115, tetraethyl 2,2′-((((((2,2′-dimethyl-[1,1′-biphenyl]-3,3′-diyl)bis(azanediyl))bis(carbonyl))bis(4-cyclopropylpyridine-6,3-diyl))bis(methylene))bis(azanediyl)) (2S,2′S)-disuccinate] yielded an IC50 [1] greater than 400 nM and an EC50 [2] greater than 10000 nM.
With Cc1c(NC(=O)c2cc(C3CC3)c(CN[C@@H](CC(=O)O)C(=O)O)cn2)cccc1-c1cccc(NC(=O)c2cc(C3CC3)c(CN[C@@H](CC(=O)O)C(=O)O)cn2)c1C [Example 116, (2S,2′S)-2,2′-((((((2,2′-dimethyl-[1,1′-biphenyl]-3,3′-diyl)bis(azanediyl))bis(carbonyl))bis(4-cyclopropylpyridine-6,3-diyl))bis(methylene))bis(azanediyl))disuccinic acid] the IC50 [1] was 0.94 nM and the EC50 [2] was 1340 nM.
In the case of CCOC(=O)C[C@@H](NCc1cnc(C(=O)Nc2cccc(-c3cccc(NC(=O)c4cc(C5CC5)c(CN[C@H](CC(=O)OCC)C(=O)OCC)cn4)c3C)c2C)cc1C1CC1)C(=O)OCC [Example 117, tetraethyl 2,2′-((((((2,2′-dimethyl-[1,1′-biphenyl]-3,3′-diyl)bis(azanediyl))bis(carbonyl))bis (4-cyclopropylpyridine-6,3-diyl))bis (methylene))bis(azanediyl))(2R,2′R)-disuccinate], the IC50 [1] is reported as greater than 400 nM and the EC50 [2] is reported as greater than 10000 nM.
Cc1c(NC(=O)c2cc(C3CC3)c(CN[C@H](CC(=O)O)C(=O)O)cn2)cccc1-c1cccc(NC(=O)c2cc(C3CC3)c(CN[C@H](CC(=O)O)C(=O)O)cn2)c1C [Example 118, (2R,2′R)-2,2′-((((((2,2′-dimethyl-[1,1′-biphenyl]-3,3′-diyl)bis(azanediyl))bis(carbonyl))bis (4-cyclopropylpyridine-6,3-diyl))bis (methylene))bis(azanediyl))disuccinic acid] gave an IC50 [1] of 1.17 nM and an EC50 [2] of 1040 nM.
CCOC(=O)C(NCc1cnc(C(=O)Nc2cccc(-c3cccc(NC(=O)c4cc(C5CC5)c(CNC(C(=O)OCC)C(=O)OCC)cn4)c3C)c2C)cc1C1CC1)C(=O)OCC [Example 119, tetraethyl 2,2′-((((((2,2′-dimethyl-[1,1′-biphenyl]-3,3′-diyl)bis(azanediyl))bis(carbonyl))bis(4-cyclopropylpyridine-6,3-diyl))bis(methylene))bis(azanediyl))dimalonate] showed an IC50 [1] greater than 400 nM and an EC50 [2] greater than 10000 nM.
